Reference: patent publication US20240190849A1, “AMINOPYRIMIDINE COMPOUNDS AND METHODS OF THEIR USE” (TYRA BIOSCIENCES, INC., priority 2021, published 2024)

Tests used:
FGFR2 = target: T1, FGFR2 (Homo sapiens, UniProt P21802); assay: Kinase binding assay (kinase-tagged T7 phage, affinity beads, qPCR readout), FGFR2; details: FGFR binding data
T1 construct: made in house; host or cells: E. coli derived from BL21, infected with T7 phage
In short: (§1)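 Kd values derive from Hill-equation fits (slope −1, Levenberg-Marquardt) of qPCR-quantified kinase recovered from ligand-coated beads. Compounds ran as 11-point 3-fold series, final DMSO 0.9%, with 1 hour room-temperature binding.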

[1] = test system: RT112/84 (Bladder Cancer), FGFR3-TACC3 fusion; assay: Cancer cell viability assay (Cell Titer-Glo), RT112/84; format: cell-based; details: Homo sapiens, RT112/84 cells, 72 hours
In short: (§2)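 Cells seeded at 10,000/well in RPMI1640 with 10% FBS, then exposed 72 h at 37° C. to a 9-point 10-fold dilution series from 30 μM, in triplicate. Viability read as ATP luminescence (CellTiter-Glo 2.0) as percent of DMSO control; IC50 from 4-parameter sigmoidal fit.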

FGFR3 (V555M) = target: T2, FGFR3 (V555M) (Homo sapiens, UniProt P22607, V555M); assay: Kinase binding assay (kinase-tagged T7 phage, affinity beads, qPCR readout), FGFR3 (V555M); details: FGFR binding data
T2 construct: made in house; host or cells: E. coli derived from BL21, infected with T7 phage
In short: as §1

[2] = test system: SNU-16 (Gastric Carcinoma), FGFR2 amplification; assay: Cancer cell viability assay (Cell Titer-Glo), SNU-16; format: cell-based; details: Homo sapiens, SNU-16 cells, 72 hours, read-out: SNU16 FGFR2 (IC50 nM)
In short: as §2

FGFR1 = target: T3, FGFR1 (Homo sapiens, UniProt P11362); assay: Kinase binding assay (kinase-tagged T7 phage, affinity beads, qPCR readout), FGFR1; details: FGFR binding data
T3 construct: made in house; host or cells: E. coli derived from BL21, infected with T7 phage
In short: as §1

[3] = test system: UM-UC-14 (Bladder Cancer), FGFR3(S249C); assay: Cancer cell viability assay (Cell Titer-Glo), UM-UC-14; format: cell-based; details: UMUC14, UM-UC-14 cells, 72 hours
In short: as §2

[4] = test system: KG-1 (Acute Myeloid Leukemia), FGFR1OP2-FGFR1 fusion; assay: Cancer cell viability assay (Cell Titer-Glo), KG-1; format: cell-based; details: Homo sapiens, KG-1 cells, 72 hours
Source text: RT112/84, UM-UC-14, SNU-16 and KG-1 Cancer Cell Line Cell Viability Assays
To detect the change of intracellular ATP by Cell Titer-Glo@ and to evaluate the inhibitory effect of the compounds on cancer cell lines by determining the in vitro IC50 value of the compounds.
Cell Titer-Glo@ 2.0 Luminescent cell viability assay reagent was purchased from Promega (Madison, WI). RT112/84, SNU-16, and KG-1 cell lines were purchased from American Type Culture Collection (Manassas, VA). UM-UC-14 cell line was purchased from Sigma (St. Louis, MO). RT112/84, UM-UC-14, SNU-16, and KG-1 cells were cultured in RPMI1640 media supplemented with 10% fetal bovine serum. Cultures were maintained at 37° C. in a humidified atmosphere of 5% CO2 and 95% air.
Cell Viability Assay Procedure: Cells were plated in 96-well clear bottom/white plates (Corning #3903) at 10,000 cells/well in 100 μl of media, incubated overnight. The next day, test compound DMSO stock solutions were made at 10 mM and 2 μM final concentration. Compounds were then added to cells in a 9-dose, […] dilution series starting at 30 μM with an HP 300e Digital Dispenser (each dose was applied in triplicate). DMSO was backfilled to each well up to 301 nL total volume of test compound+DMSO, and a total of 301 nL DMSO was added to a control/no test compound well in triplicate. The cells in cell culture plates were incubated with the compounds at 37° C. and 5% CO2 for 72 hours. Then 50 μl of Cell Titer Glo 2.0 reagent was added to each well of the cell culture plates. The contents were covered from light and mixed on an orbital shaker at room temperature for 10 min. Luminescence was recorded by a Synergy H1 Microplate Reader (Biotek, Winooski, VT). Cells were assessed as a percentage of DMSO only treated control cells. Curves were plotted and IC50 values were calculated using the GraphPad Prism 8 program based on a sigmoidal dose-response equation (4 parameter).

FGFR3 = target: T4, FGFR3 (Homo sapiens, UniProt P22607); assay: Kinase binding assay (kinase-tagged T7 phage, affinity beads, qPCR readout), FGFR3; details: FGFR binding data
T4 construct: made in house; host or cells: E. coli derived from BL21, infected with T7 phage
In short: as §1

T4 sequence (P22607 23-806): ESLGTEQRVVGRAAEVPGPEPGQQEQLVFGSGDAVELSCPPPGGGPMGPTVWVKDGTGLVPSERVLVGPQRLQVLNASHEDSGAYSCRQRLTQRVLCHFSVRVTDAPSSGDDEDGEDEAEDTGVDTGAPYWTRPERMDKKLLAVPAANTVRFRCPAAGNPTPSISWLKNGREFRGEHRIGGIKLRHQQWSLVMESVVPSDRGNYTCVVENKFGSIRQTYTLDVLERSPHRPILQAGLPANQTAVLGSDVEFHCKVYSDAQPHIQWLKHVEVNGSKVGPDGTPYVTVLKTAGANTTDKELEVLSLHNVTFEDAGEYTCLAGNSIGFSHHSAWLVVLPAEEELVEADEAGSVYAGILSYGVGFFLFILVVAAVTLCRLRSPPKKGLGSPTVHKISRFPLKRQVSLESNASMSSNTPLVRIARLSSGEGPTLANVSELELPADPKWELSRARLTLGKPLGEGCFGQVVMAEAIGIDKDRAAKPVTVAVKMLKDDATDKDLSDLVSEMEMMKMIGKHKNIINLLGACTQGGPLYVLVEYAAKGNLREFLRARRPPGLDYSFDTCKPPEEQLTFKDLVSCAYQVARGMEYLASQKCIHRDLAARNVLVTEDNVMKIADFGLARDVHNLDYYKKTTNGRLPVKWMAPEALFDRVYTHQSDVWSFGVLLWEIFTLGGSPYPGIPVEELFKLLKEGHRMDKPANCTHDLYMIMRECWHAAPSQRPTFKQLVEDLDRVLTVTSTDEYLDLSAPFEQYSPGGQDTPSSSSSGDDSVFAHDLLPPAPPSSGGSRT
T1 sequence (P21802 22-821): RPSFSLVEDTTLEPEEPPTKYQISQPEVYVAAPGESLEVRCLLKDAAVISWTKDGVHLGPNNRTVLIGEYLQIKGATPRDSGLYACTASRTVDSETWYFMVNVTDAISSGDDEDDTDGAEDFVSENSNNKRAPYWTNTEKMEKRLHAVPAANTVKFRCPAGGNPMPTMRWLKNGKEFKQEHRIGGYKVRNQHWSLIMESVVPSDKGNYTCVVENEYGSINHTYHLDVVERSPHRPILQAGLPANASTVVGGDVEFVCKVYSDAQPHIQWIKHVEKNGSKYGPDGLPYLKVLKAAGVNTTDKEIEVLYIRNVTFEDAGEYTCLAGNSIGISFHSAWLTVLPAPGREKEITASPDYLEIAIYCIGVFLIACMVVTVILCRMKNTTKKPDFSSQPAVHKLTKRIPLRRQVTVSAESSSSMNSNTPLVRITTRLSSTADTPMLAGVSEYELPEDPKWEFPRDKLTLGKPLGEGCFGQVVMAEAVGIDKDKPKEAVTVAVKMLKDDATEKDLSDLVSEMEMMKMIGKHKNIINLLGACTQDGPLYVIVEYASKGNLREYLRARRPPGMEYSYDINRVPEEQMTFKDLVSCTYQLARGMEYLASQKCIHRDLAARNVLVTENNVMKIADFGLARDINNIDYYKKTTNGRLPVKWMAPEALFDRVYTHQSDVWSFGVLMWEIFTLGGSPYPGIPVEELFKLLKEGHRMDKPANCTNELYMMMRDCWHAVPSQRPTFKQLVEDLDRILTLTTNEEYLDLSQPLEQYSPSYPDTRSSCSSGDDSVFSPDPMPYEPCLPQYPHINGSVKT
T3 sequence (P11362 22-822): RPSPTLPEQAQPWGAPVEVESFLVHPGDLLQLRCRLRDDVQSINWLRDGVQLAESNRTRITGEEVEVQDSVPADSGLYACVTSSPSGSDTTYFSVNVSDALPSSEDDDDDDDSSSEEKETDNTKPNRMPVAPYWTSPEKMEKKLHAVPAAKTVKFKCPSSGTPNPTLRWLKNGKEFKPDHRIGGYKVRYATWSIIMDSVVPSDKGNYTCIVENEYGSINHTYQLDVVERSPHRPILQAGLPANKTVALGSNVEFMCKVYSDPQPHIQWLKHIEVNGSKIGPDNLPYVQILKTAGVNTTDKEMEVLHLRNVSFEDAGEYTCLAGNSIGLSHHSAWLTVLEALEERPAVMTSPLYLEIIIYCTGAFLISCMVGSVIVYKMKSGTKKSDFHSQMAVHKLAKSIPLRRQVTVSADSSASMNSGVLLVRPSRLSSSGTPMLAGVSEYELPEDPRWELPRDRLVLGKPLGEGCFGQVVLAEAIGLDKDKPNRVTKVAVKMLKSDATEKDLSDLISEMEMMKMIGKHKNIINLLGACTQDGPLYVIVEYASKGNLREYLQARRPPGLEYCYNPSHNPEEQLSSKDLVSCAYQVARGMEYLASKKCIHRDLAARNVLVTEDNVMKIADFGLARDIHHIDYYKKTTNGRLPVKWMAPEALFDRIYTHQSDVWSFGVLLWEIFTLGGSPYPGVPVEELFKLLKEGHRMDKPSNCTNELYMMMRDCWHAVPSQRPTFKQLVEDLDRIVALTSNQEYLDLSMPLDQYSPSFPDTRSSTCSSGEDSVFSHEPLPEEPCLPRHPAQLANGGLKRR
T2 sequence (P22607 23-806 V555M): as the sequence (P22607 23-806) above, with V533M counted along it

Compound | Kd (FGFR2) [nM] | IC50 [1] [nM] | Kd (FGFR3 (V555M)) [nM] | IC50 [2] [nM] | Kd (FGFR1) [nM] | IC50 [3] [nM] | IC50 [4] [nM] | Kd (FGFR3) [nM]
C=CC(=O)Nc1ccc2c(c1)c(C)cn2-c1nc(Nc2ccnn2C)ncc1C [Example 49, N-[3-methyl-1-[5-methyl-2-[(2-methylpyrazol-3-yl)amino]-pyrimidin-4-yl]indol-5-yl]prop-2-enamide] | 0.1 to 100 | 0.1 to 100 | 0.1 to 100 | 0.1 to 100 | 100 to 250 | 0.1 to 100 | 0.1 to 100 | 0.1 to 100
C=CC(=O)Nc1ccc2c(-c3nc(Nc4ccc(N5CCOCC5)cc4)ncc3F)cn(C)c2c1 [Example 57, N-[3-[5-Fluoro-2-(4-morpholinoanilino)pyrimidin-4-yl]-1-methyl-indol-6-yl]prop-2-enamide] | 0.1 to 100 | 0.1 to 100 | 0.1 to 100 |  | 0.1 to 100 | 0.1 to 100 | 0.1 to 100 | 0.1 to 100
C=CC(=O)Nc1ccc2c(c1)c(C)cn2-c1nc(Nc2cnn(C)c2)ncc1F [Example 61, N-[1-[5-fluoro-2-[(1-methylpyrazol-4-yl)amino]pyrimidin-4-yl]-3-methyl-indol-5-yl]prop-2-enamide] | 0.1 to 100 | 0.1 to 100 | 0.1 to 100 | 0.1 to 100 | 0.1 to 100 | 0.1 to 100 | 0.1 to 100 | 0.1 to 100
C=CC(=O)Nc1ccc2c(c1)c(C)cn2-c1nc(Nc2cc(C)nn2C)ncc1C [Example 64, N-[1-[2-[(2,5-dimethylpyrazol-3-yl)amino]-5-methyl-pyrimidin-4-yl]-3-methyl-indol-5-yl]prop-2-enamide] | 0.1 to 100 | 0.1 to 100 | 0.1 to 100 | 0.1 to 100 | 0.1 to 100 | 0.1 to 100 | 0.1 to 100 | 0.1 to 100
C=CC(=O)Nc1ccc2c(c1)c(C)cn2-c1nc(Nc2ccn(C)n2)ncc1C [Example 81, N-[3-methyl-1-[5-methyl-2-[(1-methylpyrazol-3-yl)amino]pyrimidin-4-yl]indol-5-yl]prop-2-enamide] | 0.1 to 100 | 0.1 to 100 | 0.1 to 100 |  | 0.1 to 100 | 0.1 to 100 | 0.1 to 100 | 0.1 to 100
C=CC(=O)Nc1cnc2c(c1)c(C)cn2-c1nc(Nc2ccnn2C)ncc1C [Example 85, N-[3-methyl-1-[5-methyl-2-[(2-methylpyrazol-3-yl)amino]pyrimidin-4-yl]pyrrolo[2,3-b]pyridin-5-yl]prop-2-enamide] | 0.1 to 100 | 0.1 to 100 | 0.1 to 100 |  | 0.1 to 100 | 0.1 to 100 | 0.1 to 100 | 0.1 to 100
C=CC(=O)Nc1ccc2c(-c3ccnc(Nc4cnn(CCO)c4)n3)cn(C)c2c1 [Example 106, N-[3-[2-[[1-(2-hydroxyethyl)pyrazol-4-yl]amino]pyrimidin-4-yl]-1-methyl-indol-6-yl]prop-2-enamide] | 0.1 to 100 | 0.1 to 100 | 0.1 to 100 | 0.1 to 100 | 0.1 to 100 | 0.1 to 100 | 0.1 to 100 | 0.1 to 100

Further lines, results first:

Kd (FGFR2) [nM] | IC50 [1] [nM] | Kd (FGFR3 (V555M)) [nM] | IC50 [2] [nM] | Kd (FGFR1) [nM] | IC50 [3] [nM] | IC50 [4] [nM] | Kd (FGFR3) [nM] | Compound
0.1 to 100 | 0.1 to 100 | 0.1 to 100 | 0.1 to 100 | 0.1 to 100 | 0.1 to 100 | 0.1 to 100 | 0.1 to 100 | C=CC(=O)Nc1ccc2c(c1)c(C)cn2-c1nc(Nc2ccc(N3CCOCC3)cc2)ncc1C [Example 44, N-[3-methyl-1-[5-methyl-2-(4-morpholinoanilino)pyrimidin-4-yl]indol-5-yl]prop-2-enamide]
0.1 to 100 | 0.1 to 100 | 0.1 to 100 | 0.1 to 100 | 0.1 to 100 | 0.1 to 100 | 0.1 to 100 | 0.1 to 100 | C=CC(=O)Nc1ccc2c(c1)c(C)cn2-c1ccnc(Nc2ccc(N3CCOCC3)cc2)n1 [Example 54, N-[3-Methyl-1-[2-(4-morpholinoanilino)pyrimidin-4-yl]indol-5-yl]prop-2-enamide]
0.1 to 100 | 0.1 to 100 | 0.1 to 100 |  | 0.1 to 100 | 0.1 to 100 | 0.1 to 100 | 0.1 to 100 | C=CC(=O)Nc1ccc2c(c1)c(C)cn2-c1nc(Nc2ccc(N3CCOCC3)cc2)ncc1F [Example 67, N-[1-[5-Fluoro-2-(4-morpholino-anilino)pyrimidin-4-yl]-3-methyl-indol-5-yl]prop-2-enamide]
